Reference: the kinase profiling compilation of Christmann-Franck et al. (2016)

What was measured:
Assay in all cases: KINOMEscan competition binding
Conditions in all cases: compound 10.0 µM
ANKK1 (human) = ANKK1 (human) (UniProt Q8NFD2)
CDK15 (human) = CDK15 (human) (UniProt Q96Q40)
CDK8 (human) = CDK8 (human) (UniProt P49336)
CHEK2 (human) = CHEK2 (human) (UniProt O96017)
CSNK2A1 (human) = CSNK2A1 (human) (UniProt P68400)
CaMK1 (human) = CaMK1 (human) (UniProt Q14012)
DAPK1 (human) = DAPK1 (human) (UniProt P53355)
DAPK1 (human), sequence (P53355 whole entry, looked up): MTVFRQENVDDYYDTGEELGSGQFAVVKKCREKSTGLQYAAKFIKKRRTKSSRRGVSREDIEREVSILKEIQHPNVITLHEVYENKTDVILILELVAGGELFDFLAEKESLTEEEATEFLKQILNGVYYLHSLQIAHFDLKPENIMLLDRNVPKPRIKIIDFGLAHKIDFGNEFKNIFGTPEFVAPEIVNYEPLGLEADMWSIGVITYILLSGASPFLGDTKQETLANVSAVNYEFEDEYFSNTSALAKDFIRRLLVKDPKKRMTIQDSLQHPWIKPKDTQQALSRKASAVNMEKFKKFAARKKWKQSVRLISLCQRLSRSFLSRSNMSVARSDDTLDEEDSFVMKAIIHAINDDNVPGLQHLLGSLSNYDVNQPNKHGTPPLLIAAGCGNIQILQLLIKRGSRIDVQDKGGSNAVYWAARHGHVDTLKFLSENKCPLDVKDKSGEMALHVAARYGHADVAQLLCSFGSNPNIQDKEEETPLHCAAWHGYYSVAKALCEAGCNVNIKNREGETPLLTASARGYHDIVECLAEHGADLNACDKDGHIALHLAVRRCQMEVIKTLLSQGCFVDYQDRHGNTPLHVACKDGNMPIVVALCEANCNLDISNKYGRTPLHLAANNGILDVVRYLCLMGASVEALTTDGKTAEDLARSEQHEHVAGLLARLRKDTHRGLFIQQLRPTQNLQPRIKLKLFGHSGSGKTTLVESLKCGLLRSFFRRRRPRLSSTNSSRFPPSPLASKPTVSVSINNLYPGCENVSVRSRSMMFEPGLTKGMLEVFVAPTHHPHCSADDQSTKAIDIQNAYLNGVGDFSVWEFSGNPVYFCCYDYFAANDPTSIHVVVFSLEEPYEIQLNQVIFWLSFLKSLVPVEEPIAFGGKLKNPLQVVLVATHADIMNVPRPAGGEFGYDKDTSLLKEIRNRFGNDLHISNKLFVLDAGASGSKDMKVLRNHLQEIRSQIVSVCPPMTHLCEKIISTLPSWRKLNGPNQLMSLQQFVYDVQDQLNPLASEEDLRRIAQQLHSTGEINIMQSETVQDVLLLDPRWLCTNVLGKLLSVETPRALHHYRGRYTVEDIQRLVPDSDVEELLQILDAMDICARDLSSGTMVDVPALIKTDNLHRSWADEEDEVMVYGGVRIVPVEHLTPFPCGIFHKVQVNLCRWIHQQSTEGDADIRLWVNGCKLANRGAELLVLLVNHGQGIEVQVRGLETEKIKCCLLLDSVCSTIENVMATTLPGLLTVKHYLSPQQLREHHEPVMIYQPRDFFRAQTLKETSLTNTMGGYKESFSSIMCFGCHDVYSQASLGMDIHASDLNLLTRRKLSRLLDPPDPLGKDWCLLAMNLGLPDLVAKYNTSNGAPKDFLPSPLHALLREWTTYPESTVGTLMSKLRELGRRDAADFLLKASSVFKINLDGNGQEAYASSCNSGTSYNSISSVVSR

EPHA2 (human) = EPHA2 (human) (UniProt P29317)
FGR (human) = FGR (human) (UniProt P09769)
FLT1 (human) = FLT1 (human) (UniProt P17948)
HCK (human) = HCK (human) (UniProt P08631)
HCK (human), sequence (P08631 whole entry, looked up): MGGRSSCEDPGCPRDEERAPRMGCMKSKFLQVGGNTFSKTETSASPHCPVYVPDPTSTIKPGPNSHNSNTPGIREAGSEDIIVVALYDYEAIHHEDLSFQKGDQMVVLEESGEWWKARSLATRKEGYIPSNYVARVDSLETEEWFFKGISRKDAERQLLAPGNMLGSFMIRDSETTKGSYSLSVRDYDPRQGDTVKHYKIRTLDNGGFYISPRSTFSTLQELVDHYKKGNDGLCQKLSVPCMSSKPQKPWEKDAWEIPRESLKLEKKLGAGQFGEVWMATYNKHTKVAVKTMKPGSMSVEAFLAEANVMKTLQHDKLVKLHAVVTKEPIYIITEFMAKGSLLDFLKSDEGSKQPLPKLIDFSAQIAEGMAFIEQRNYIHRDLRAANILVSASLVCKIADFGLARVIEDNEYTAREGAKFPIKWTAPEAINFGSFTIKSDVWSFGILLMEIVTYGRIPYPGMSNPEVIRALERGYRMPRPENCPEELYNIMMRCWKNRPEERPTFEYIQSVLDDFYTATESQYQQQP

IKBKB (human) = IKBKB (human) (UniProt O14920)
MAP3K3 (human) = MAP3K3 (human) (UniProt Q99759)
MAP3K4 (human) = MAP3K4 (human) (UniProt Q9Y6R4)
MAP4K4 (human) = MAP4K4 (human) (UniProt O95819)
MAPK13 (human) = MAPK13 (human) (UniProt O15264)
MKNK1 (human) = MKNK1 (human) (UniProt Q9BUB5)
MKNK1 (human), sequence (Q9BUB5 whole entry, looked up): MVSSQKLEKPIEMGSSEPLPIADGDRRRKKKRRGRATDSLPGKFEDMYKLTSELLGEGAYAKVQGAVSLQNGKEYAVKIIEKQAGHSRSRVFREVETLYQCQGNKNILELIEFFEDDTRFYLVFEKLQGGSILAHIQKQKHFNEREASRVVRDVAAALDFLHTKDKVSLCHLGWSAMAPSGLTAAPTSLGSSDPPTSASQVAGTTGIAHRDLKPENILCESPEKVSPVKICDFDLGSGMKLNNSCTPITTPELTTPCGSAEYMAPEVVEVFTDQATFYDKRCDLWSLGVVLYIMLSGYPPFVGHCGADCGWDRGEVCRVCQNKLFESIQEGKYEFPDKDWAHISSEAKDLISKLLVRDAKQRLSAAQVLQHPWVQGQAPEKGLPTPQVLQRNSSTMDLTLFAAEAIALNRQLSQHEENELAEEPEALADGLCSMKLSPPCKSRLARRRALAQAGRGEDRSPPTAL

NEK1 (human) = NEK1 (human) (UniProt Q96PY6)
NTRK3 (human) = NTRK3 (human) (UniProt Q16288)
NUAK2 (human) = NUAK2 (human) (UniProt Q9H093)
PDGFRA (human) = PDGFRA (human) (UniProt P16234)
PIK3C2B (human) = PIK3C2B (human) (UniProt O00750)
PRKACA (human) = PRKACA (human) (UniProt P17612)
PRKCH (human) = PRKCH (human) (UniProt P24723)
PRKCH (human), sequence (P24723 whole entry, looked up): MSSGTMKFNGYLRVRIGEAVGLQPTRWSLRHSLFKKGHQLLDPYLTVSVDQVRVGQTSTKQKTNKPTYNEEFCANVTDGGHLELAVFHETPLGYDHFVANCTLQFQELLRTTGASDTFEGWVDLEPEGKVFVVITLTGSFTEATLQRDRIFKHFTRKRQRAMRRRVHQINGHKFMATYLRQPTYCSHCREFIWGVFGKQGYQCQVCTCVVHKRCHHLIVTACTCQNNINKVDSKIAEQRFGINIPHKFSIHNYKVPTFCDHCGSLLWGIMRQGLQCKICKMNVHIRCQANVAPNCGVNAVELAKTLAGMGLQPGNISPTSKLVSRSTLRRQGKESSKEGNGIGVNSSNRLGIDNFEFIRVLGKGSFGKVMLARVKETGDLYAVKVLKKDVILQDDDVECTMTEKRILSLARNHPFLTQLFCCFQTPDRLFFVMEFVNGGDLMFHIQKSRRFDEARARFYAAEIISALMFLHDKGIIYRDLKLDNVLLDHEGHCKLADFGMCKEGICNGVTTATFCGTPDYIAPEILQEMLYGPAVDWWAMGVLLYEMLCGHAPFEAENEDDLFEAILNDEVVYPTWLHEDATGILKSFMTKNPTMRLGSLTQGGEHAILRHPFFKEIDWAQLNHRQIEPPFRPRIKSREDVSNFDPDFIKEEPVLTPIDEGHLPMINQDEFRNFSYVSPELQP

PRKG1 (human) = PRKG1 (human) (UniProt Q13976)
PRKG2 (human) = PRKG2 (human) (UniProt Q13237)
RIOK2 (human) = RIOK2 (human) (UniProt Q9BVS4)
RPS6KA2 KD1 (human) = RPS6KA2 KD1 (human) (UniProt Q15349)
RPS6KA5 KD1 (human) = RPS6KA5 KD1 (human) (UniProt O75582)
RPS6KA6 KD2 (human) = RPS6KA6 KD2 (human) (UniProt Q9UK32)
SIK2 (human) = SIK2 (human) (UniProt Q9H0K1)
SRPK2 (human) = SRPK2 (human) (UniProt P78362)
STK17A (human) = STK17A (human) (UniProt Q9UEE5)
STK17A (human), sequence (Q9UEE5 whole entry, looked up): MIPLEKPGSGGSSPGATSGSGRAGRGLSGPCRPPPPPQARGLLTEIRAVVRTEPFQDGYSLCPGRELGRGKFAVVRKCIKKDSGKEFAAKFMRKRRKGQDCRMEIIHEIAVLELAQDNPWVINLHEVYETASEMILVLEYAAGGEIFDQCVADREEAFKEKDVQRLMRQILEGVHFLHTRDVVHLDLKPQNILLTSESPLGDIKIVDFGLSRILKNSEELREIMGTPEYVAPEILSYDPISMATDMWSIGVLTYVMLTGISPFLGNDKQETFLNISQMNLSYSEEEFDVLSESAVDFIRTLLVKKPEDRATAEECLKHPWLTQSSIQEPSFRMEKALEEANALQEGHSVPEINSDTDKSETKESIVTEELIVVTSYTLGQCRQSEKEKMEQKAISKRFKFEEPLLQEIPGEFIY

TAOK3 (human) = TAOK3 (human) (UniProt Q9H2K8)
TGFBR1 (human) = TGFBR1 (human) (UniProt P36897)
TGFBR1 (human), sequence (P36897 whole entry, looked up): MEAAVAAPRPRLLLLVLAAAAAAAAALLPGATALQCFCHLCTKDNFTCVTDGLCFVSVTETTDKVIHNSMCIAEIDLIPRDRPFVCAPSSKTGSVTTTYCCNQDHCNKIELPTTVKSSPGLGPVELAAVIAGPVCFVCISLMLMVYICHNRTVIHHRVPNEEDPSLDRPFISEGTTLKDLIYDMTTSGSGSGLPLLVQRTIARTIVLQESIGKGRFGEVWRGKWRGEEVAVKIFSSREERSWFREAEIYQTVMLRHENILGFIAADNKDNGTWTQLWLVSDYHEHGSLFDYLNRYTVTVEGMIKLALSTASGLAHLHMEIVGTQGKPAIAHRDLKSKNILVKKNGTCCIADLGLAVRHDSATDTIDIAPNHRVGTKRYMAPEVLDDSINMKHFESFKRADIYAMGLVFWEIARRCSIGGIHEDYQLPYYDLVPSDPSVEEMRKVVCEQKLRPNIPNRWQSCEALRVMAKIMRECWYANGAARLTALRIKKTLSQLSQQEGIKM

TGFBR2 (human) = TGFBR2 (human) (UniProt P37173)
TGFBR2 (human), sequence (P37173 whole entry, looked up): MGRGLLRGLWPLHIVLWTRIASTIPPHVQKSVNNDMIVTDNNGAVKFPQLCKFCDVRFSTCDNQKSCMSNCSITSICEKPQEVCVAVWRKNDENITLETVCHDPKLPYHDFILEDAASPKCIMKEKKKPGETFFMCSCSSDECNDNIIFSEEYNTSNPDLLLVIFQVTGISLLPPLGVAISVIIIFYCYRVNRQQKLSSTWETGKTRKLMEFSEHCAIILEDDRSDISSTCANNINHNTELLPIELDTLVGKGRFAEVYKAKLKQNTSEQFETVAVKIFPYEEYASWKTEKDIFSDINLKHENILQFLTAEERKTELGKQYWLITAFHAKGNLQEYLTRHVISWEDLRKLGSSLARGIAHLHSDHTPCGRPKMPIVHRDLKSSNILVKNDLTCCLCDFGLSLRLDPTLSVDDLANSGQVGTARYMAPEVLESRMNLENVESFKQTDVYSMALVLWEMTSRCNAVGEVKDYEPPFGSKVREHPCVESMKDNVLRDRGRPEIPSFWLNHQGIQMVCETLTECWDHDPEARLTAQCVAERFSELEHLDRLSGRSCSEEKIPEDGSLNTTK

TLK1 (human) = TLK1 (human) (UniProt Q9UKI8)
WEE2 (human) = WEE2 (human) (UniProt P0C1S8)
RPS6KA3 KD1 (human) = RPS6KA3 KD1 (human) (UniProt P51812)

CSNK2A1 (human), sequence (P68400 whole entry, looked up): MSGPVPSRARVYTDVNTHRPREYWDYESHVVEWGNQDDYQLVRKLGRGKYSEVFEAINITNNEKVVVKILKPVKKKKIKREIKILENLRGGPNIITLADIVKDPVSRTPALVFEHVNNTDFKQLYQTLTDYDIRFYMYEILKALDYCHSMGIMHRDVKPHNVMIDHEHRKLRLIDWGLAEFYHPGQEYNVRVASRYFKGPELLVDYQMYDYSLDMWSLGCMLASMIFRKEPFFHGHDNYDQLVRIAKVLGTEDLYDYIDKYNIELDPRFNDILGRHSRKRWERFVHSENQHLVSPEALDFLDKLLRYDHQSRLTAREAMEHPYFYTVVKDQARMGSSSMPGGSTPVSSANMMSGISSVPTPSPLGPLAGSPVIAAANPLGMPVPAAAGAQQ

| Compound | kinase still bound, per cent of control (ANKK1 (human)) | kinase still bound, per cent of control (CDK8 (human)) | kinase still bound, per cent of control (CSNK2A1 (human)) | kinase still bound, per cent of control (CaMK1 (human)) | kinase still bound, per cent of control (DAPK1 (human)) | kinase still bound, per cent of control (EPHA2 (human)) | kinase still bound, per cent of control (FGR (human)) | kinase still bound, per cent of control (FLT1 (human)) | kinase still bound, per cent of control (HCK (human)) | kinase still bound, per cent of control (MAP3K4 (human)) | kinase still bound, per cent of control (MAP4K4 (human)) | kinase still bound, per cent of control (MKNK1 (human)) | kinase still bound, per cent of control (NEK1 (human)) | kinase still bound, per cent of control (NTRK3 (human)) | kinase still bound, per cent of control (NUAK2 (human)) | kinase still bound, per cent of control (PDGFRA (human)) | kinase still bound, per cent of control (PRKACA (human)) | kinase still bound, per cent of control (PRKCH (human)) | kinase still bound, per cent of control (PRKG1 (human)) | kinase still bound, per cent of control (PRKG2 (human)) | also measured |
| --- | --- | --- | --- | --- | --- | --- | --- | --- | --- | --- | --- | --- | --- | --- | --- | --- | --- | --- | --- | --- | --- |
| Cc1n[nH]c2ccc(-c3cncc(OC[C@@H](N)Cc4c[nH]c5ccccc45)c3)cc12 | 100% | 9.6% | 17% | 33% | 2.2% | 100% | 100% | 100% | 100% | 100% | 2.2% | 19% | 100% | 100% | 1.9% | 100% | 0.85% | 1.4% | 0.65% | 5.7% | kinase still bound, per cent of control (CDK15 (human)): 16%; kinase still bound, per cent of control (CHEK2 (human)): 100%; kinase still bound, per cent of control (IKBKB (human)): 34%; kinase still bound, per cent of control (MAP3K3 (human)): 29%; kinase still bound, per cent of control (MAPK13 (human)): 4.4%; kinase still bound, per cent of control (PIK3C2B (human)): 100%; kinase still bound, per cent of control (RIOK2 (human)): 6.2%; kinase still bound, per cent of control (RPS6KA2 KD1 (human)): 29%; kinase still bound, per cent of control (RPS6KA5 KD1 (human)): 11%; kinase still bound, per cent of control (RPS6KA6 KD2 (human)): 100%; kinase still bound, per cent of control (SIK2 (human)): 100%; kinase still bound, per cent of control (SRPK2 (human)): 22%; kinase still bound, per cent of control (STK17A (human)): 5.4%; kinase still bound, per cent of control (TAOK3 (human)): 0.1%; kinase still bound, per cent of control (TGFBR1 (human)): 100%; kinase still bound, per cent of control (TGFBR2 (human)): 100%; kinase still bound, per cent of control (TLK1 (human)): 100%; kinase still bound, per cent of control (WEE2 (human)): 100% |
| CCN(CC)CCCCNc1ncc2cc(-c3cc(OC)cc(OC)c3)c(NC(=O)NC(C)(C)C)nc2n1 | 100% | 100% | 100% | 100% | 100% | 100% | 100% | 8% | 100% | 100% | 100% | 100% | 100% | 100% | 100% | 100% | 100% | 100% | 100% | 100% | kinase still bound, per cent of control (RPS6KA2 KD1 (human)): 100%; kinase still bound, per cent of control (RPS6KA3 KD1 (human)): 100%; kinase still bound, per cent of control (RPS6KA5 KD1 (human)): 100%; kinase still bound, per cent of control (RPS6KA6 KD2 (human)): 100%; kinase still bound, per cent of control (SIK2 (human)): 100%; kinase still bound, per cent of control (SRPK2 (human)): 100%; kinase still bound, per cent of control (STK17A (human)): 100%; kinase still bound, per cent of control (TGFBR1 (human)): 100%; kinase still bound, per cent of control (TGFBR2 (human)): 100%; kinase still bound, per cent of control (TLK1 (human)): 100% |
